From PMC8269059, “Glycyrrhizin Derivatives Suppress Cancer Chemoresistance by Inhibiting Progesterone Receptor Membrane Component 1” (Cancers, 2021) come the findings set out here.

The target of one assay is T1, PGRMC1 G111W (Homo sapiens, UniProt O00264, G111W).
T1 construct: human PGRMC1 intracellular domain residues 43-195; GST (N, cleaved yes); made in house; host or cells: E. coli BL21 (DE3)
Kind of assay: ITC binding of GL to PGRMC1 mutant G111W. The text has this:
(§1) Bacterial expression vectors pGEX-PGRMC1 (human PGRMC1 intracellular domain residues 43-195) and mammalian FLAG-tagged expression vector pCMV-FLAG-PGRMC1 (full-length) were constructed as described previously. Expression vectors for PGRMC1 point mutants were generated by site-directed mutagenesis with PCR. For construction of HMGB1 expression vector, human HMGB1 full-length cDNA was cloned from cDNA library of HCT116 cells using the primers (Forward: 5′-[…]-3′, Reverse: 5′-[…]-[…]-3′), digested with Bam HI and Sal I, and then ligated into pGEX6P1.
(§2) ITC experiments were performed at 298 K with ITC-Buffer (50 mM phosphate [pH 7.0]) using a MicroCal iTC200 (Malvern Panalytical, Malvern, UK). GL derivatives were dissolved in […] and titrated into 100 μM apo-PGRMC1, heme-bound-PGRMC1, or HMGB1 protein. Titration was performed by injecting 2 µL of the syringe solution at intervals of 120 s. Binding isotherms were analyzed using SEDPHAT [35]. The binding of AG205 to apo- or heme-PGRMC1 (100 μM) was analyzed using a concentration of 3 mM containing 1% DMSO. The binding affinities of GL derivatives for HMGB1 (80 µM) were analyzed using a concentration of 3 mM.

Another assay addresses T2, PGRMC1 K132V (Homo sapiens, UniProt O00264, K132V).
T2 construct: human PGRMC1 intracellular domain residues 43-195; GST (N, cleaved yes); made in house; host or cells: E. coli BL21 (DE3)
Kind of assay: ITC binding of GL to PGRMC1 mutant K132V.
Text: as §1, §2

Another assay has as its target T3, PGRMC1 T146W (Homo sapiens, UniProt O00264, T146W).
T3 construct: human PGRMC1 intracellular domain residues 43-195; GST (N, cleaved yes); made in house; host or cells: E. coli BL21 (DE3)
The assay is described as follows: ITC binding of GL to PGRMC1 mutant T146W.
Text: as §1, §2

T3 sequence (O00264 43-195 T146W): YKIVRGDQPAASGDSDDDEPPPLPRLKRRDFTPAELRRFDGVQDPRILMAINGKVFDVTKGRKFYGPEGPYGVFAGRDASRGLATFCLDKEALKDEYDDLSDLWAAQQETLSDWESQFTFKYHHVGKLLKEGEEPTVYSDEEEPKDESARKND
T2 sequence (O00264 43-195 K132V): as the sequence (O00264 43-195 T146W) above, with K90V, W104T counted along it
T1 sequence (O00264 43-195 G111W): as the sequence (O00264 43-195 T146W) above, with G69W, W104T counted along it

The term Kd denotes the constant that tells how readily two partners part at equilibrium. Read a low Kd as higher affinity. On to `CC1(C)[C@@H](O[C@H]2O[C@H](C(=O)O)[C@@H](O)[C@H](O)[C@H]2O[C@@H]2O[C@H](C(=O)O)[C@@H](O)[C@H](O)[C@H]2O)CC[C@]2(C)[C@H]3C(=O)C=C4[C@@H]5C[C@@](C)(C(=O)O)CC[C@]5(C)CC[C@@]4(C)[C@]3(C)CC[C@@H]12` [Glycyrrhizin (GL), Glycyrrhizin], for which, on PGRMC1 G111W, the Kd came out at 108 µM, the TΔS was found to be 4.39 K･kcal/mol and the ΔH was -1.86 kcal/mol. In addition, on PGRMC1 K132V, the affinity, expressed as Kd, was 84.6 µM; the TΔS amounted to 4.55 K･kcal/mol; the ΔG is -5.56 kcal/mol; the ΔH was -1.01 kcal/mol. At PGRMC1 T146W, binding was put at a Kd of 97.9 µM, the TΔS is reported as 2.64 K･kcal/mol and the ΔH is -2.17 kcal/mol.
